Measured values taken from publication PMC7418559, “Synthesis and SAR of Tetracyclic Inhibitors of Protein Kinase CK2 Derived from Furocarbazole W16” (Chemmedchem, 2020).
Like-named read-outs stand apart in the source and are kept apart here.

Assays:
holoenzyme CK2α2β2 = molecular target: T1, holoenzyme CK2α2β2 (Homo sapiens, UniProt P68400); assay: Capillary electrophoresis (CE) assay, enzyme inhibition of the holoenzyme; format: biochemical; settings: for inhibition at 10 µM: read-out: Inhibition (%) of CK2α2β2
T1 construct: made in house; host or cells: E. coli BL21(DE3)
Experimental: (§1) In this assay, the decapeptide […], a known class I substrate suitable for assaying the kinase activity of both the CK2 holoenzyme and the catalytically active CK2 subunits,50, 58 was reacted with ATP in the presence of enzyme, which transfers a phosphate group to Ser7 of the decapeptide. Due to the additional negative charge of the phosphate group, the decapeptide and the phosphorylated decapeptide can be separated by CE.
Enzymatic activities with or without inhibitors were determined for the holoenzyme (CK2α2β2), the CK2α subunit, and the mutated CK2α′ ^C336S subunit by a capillary electrophoresis assay as described before.59 For this purpose, CK2α as well as (CK2α2β2) holoenzyme were purified after recombinant expression in E. coli BL21(DE3) and purified according the protocol of Grankowski et al.62 The mutated CK2α′ ^C336S subunit was purified by Ni‐NTA affinity chromatography using an N‐terminally attached His6 tag. […] For both CK2α subunits an assay buffer containing 100 mM NaCl instead of 60 mM NaCl as for the holoenzyme, and 20 mM MgCl2 instead of 10 mM MgCl2 was applied. For the holoenzyme, 1 μg was added, whereas for CK2α and the mutated CK2α′ ^C336S subunit 0.25 μg was added each. For each compound inhibition was determined three times independently at an initial concentration of 10 μM and the mean value and the standard deviation (SD) were calculated.

[1] = molecular target: T2, mutated CK2α’ ^C336S subunit (Homo sapiens, UniProt P19784, C336S); assay: Capillary electrophoresis (CE) assay, enzyme inhibition of the mutated CK2α′ C336S subunit; format: biochemical; settings: for inhibition at 10 µM: read-out: Inhibition (%) of CK2α’ ^C336S
T2 construct: His6 (N); made in house
T2 sequence (P19784 1-350 C336S): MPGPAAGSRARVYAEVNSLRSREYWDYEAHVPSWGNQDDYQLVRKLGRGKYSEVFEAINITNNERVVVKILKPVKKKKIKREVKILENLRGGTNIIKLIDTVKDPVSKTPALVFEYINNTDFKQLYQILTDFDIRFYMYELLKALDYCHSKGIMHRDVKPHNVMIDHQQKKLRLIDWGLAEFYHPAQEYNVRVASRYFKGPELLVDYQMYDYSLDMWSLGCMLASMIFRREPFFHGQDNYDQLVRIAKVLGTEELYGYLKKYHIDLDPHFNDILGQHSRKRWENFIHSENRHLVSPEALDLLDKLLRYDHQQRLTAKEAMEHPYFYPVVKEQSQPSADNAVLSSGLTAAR
Source text: as §1, with “CE. […] The data on the inhibition of the kinase activities of CK2α2β2, CK2α subunit and mutated CK2α’ ^C336S subunit are summarized in Table 1.” for “CE.”
(§2) Enzymatic activities with or without inhibitors were determined for the holoenzyme (CK2α2β2), the CK2α subunit, and the mutated CK2α′ ^C336S subunit by a capillary electrophoresis assay as described before.59 For this purpose, CK2α as well as (CK2α2β2) holoenzyme were purified after recombinant expression in E. coli BL21(DE3) and purified according the protocol of Grankowski et al.62 The mutated CK2α′ ^C336S subunit was purified by Ni‐NTA affinity chromatography using an N‐terminally attached His6 tag. Successful purification was controlled by SDS‐PAGE. Enzymatic activity was determined in the presence of 60 μM ATP and 114 μM of the substrate peptide […]. For both CK2α subunits an assay buffer containing 100 mM NaCl instead of 60 mM NaCl as for the holoenzyme, and 20 mM MgCl2 instead of 10 mM MgCl2 was applied. For the holoenzyme, 1 μg was added, whereas for CK2α and the mutated CK2α′ ^C336S subunit 0.25 μg was added each. For each compound inhibition was determined three times independently at an initial concentration of 10 μM and the mean value and the standard deviation (SD) were calculated.

CK2α subunit = molecular target: T3, CK2α subunit (Homo sapiens, UniProt P68400); assay: Capillary electrophoresis (CE) assay, enzyme inhibition of the CK2α subunit; format: biochemical; settings: for inhibition at 10 µM: read-out: Inhibition (%) of CK2α
T3 construct: made in house; host or cells: E. coli BL21(DE3)
Source text: as §1, with “CE. […] The data on the inhibition of the kinase activities of CK2α2β2, CK2α subunit and mutated CK2α’ ^C336S subunit are summarized in Table 1.” for “CE.”
as §2

CK2 = tested on: CK2; parameters: method as in PMID 29759799; settings: cited from earlier work
[2] = molecular target: T4, CK2α/CK2β interaction (CK2α^1−335 / fluorescently labeled CK2β^1−193) (Homo sapiens, UniProt P68400)
T4 sequence (P68400 1-335): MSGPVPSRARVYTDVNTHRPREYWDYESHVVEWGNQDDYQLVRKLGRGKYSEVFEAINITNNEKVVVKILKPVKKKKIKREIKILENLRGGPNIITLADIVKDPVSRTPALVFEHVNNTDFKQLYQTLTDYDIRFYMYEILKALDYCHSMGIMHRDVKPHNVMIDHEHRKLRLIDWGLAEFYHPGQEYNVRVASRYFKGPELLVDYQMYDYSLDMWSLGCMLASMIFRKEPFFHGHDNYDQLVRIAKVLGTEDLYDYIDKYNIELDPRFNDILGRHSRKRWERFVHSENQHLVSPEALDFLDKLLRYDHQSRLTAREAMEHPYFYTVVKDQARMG
Experimental: The inhibition of the interaction between the CK2α and the CK2β subunit was determined in a microscale thermophoresis (MST) assay.
To quantify the protein‐protein interaction in the presence of potential inhibitors, the investigated compounds were first dissolved in DMSO (2‐10 mM) and then 50‐fold diluted in ITC buffer (25 mM Tris‐HCl, 500 mM NaCl, pH 8.5) containing 0.1 % (v/v) Tween 20 to concentrations of either 40, 100 or 200 μM in 2 % (v/v) DMSO, i. e. twice the final concentrations: 20, 50 and 100 μM, respectively, in 1 % (v/v) DMSO, 0.05 % (v/v) Tween 20. […] MST traces were recorded at room temperature using a Nanotemper Monolith™ NT.115 Series Instrument with Monolith™ NT.115 standard treated capillaries and normalized to initial fluorescence (MO.Affinity Analysis, Nanotemper). […] Next, the statistical significance of the shift from K D to K D’ was determined for each compound by means of an unpaired Student's t test (Table S4). […] Data was analyzed and statistically evaluated with the program GraphPad Prism v.5.04 for Windows (GraphPad Software, San Diego, CA, USA).
a Shown are mean  SEM values of KD and KD’ for n separate experiments.
significant (n. s.), P > 0.05; *, P ≤ 0.05; **, P ≤ 0.01; ***, P ≤ 0.001; ****, P ≤ 0.0001. prec.

monomeric CK2α = tested on: monomeric CK2α; parameters: method as in PMID 18553057; settings: read-out: IC50, inhibition of the catalytic activity of monomeric CK2α; cited from earlier work
CK2α/CK2β interaction = tested on: CK2α/CK2β interaction; parameters: method as in PMID 18553057; settings: read-out: IC50, inhibition of CK2α/CK2β interaction (PPII); cited from earlier work
[3] = c=10 μM, CE assay, mean±SD of three experiments, n.s.=not significant

T1 sequence (P68400 whole entry): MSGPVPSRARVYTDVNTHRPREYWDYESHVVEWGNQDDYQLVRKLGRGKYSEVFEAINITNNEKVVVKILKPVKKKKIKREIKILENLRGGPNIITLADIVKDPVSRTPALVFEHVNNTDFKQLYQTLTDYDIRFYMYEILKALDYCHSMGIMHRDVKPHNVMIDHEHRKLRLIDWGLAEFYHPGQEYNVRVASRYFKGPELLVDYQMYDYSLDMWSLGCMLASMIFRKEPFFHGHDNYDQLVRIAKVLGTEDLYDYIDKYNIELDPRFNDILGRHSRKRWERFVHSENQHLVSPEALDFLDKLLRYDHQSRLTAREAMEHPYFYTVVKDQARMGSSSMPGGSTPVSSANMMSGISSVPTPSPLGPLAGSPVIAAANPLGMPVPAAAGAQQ
T3 sequence (P68400 whole entry): as above

Row | Compound | inhibition at 10 µM (holoenzyme CK2α2β2; [3]) | Ki [2] | Inhibition (%) of CK2α (CK2α subunit; [3]) | Inhibition (%) of CK2α’ ^C336S [1, 3] | other results
1 | COc1cc([C@H]2c3c([nH]c4ccccc34)[C@H](C(=O)N3C(=O)OC[C@@H]3Cc3ccccc3)[C@H]3C(=O)OC(=O)[C@@H]23)cc(OC)c1OC [(+)‐3 c, (3aR,4R,10S,10aS)‐4‐{[(S)‐4‐Benzyl‐2‐oxo‐1,3‐oxazolidin‐3‐yl]carbonyl}‐10‐(3,4,5‐trimethoxyphenyl)‐4,5,10,10a‐tetrahydrofuro[3,4‐b]carbazole‐1,3(3aH)‐dione] |  |  |  |  | inhibition at 10 µM (holoenzyme CK2α2β2): 66 ± 16%; inhibition at 10 µM [1]: 52 ± 38%; inhibition at 10 µM (CK2α subunit): 65 ± 4%
2 | NCc1cc(Cl)cc(-c2cccc3[nH]ccc23)c1 [CAM187] |  |  |  |  | Inhibition of CK2 activity (CK2): did not significantly inhibit CK2 activity
3 | COc1cc([C@@H]2c3c([nH]c4ccccc34)[C@H](C(=O)N3C(=O)OC[C@H]3Cc3ccccc3)[C@@H]3C(=O)OC(=O)[C@H]23)cc(OC)c1OC [(−)‐3 a] |  |  |  |  | inhibition at 10 µM (holoenzyme CK2α2β2): 89 ± 3%; inhibition at 10 µM [1]: 93 ± 2%; inhibition at 10 µM (CK2α subunit): 73 ± 4%
4 | CCOC(=O)C1c2[nH]c3ccccc3c2C(c2cc(OC)c(OC)c(OC)c2)C2C(=O)NC(=O)C12 (racemic) [(±)‐11] |  | 32 ± 17 µM | n.s. | n.s. | Inhibition (%) of CK2α2β2 (holoenzyme CK2α2β2; [3]): n.s.
5 | COc1cc([C@@H]2c3c([nH]c4ccccc34)[C@@H](C(=O)N3C(=O)OC[C@@H]3Cc3ccccc3)[C@@H]3C(=O)OC(=O)[C@H]23)cc(OC)c1OC [(+)‐3 d, (3aS,4S,10R,10aR)‐4‐{[(S)‐4‐Benzyl‐2‐oxo‐1,3‐oxazolidin‐3‐yl]carbonyl}‐10‐(3,4,5‐trimethoxyphenyl)‐4,5,10,10a‐tetrahydrofuro[3,4‐b]carbazole‐1,3(3aH)‐dione] |  |  |  | n.s. | inhibition at 10 µM (holoenzyme CK2α2β2): 92 ± 7%; inhibition at 10 µM (CK2α subunit): 43 ± 13%
6 | COc1cc([C@H]2c3c([nH]c4ccccc34)[C@@H](C(=O)N3C(=O)OC[C@H]3Cc3ccccc3)[C@H]3C(=O)NC(=O)[C@@H]23)cc(OC)c1OC [(+)‐9 b, (3aS,4S,10S,10aS)‐4‐{[(R)‐4‐Benzyl‐2‐oxo‐1,3‐oxazolidin‐3‐yl]carbonyl}‐10‐(3,4,5‐trimethoxyphenyl)‐4,5,10,10a‐tetrahydropyrrolo[3,4‐b]carbazole‐1,3(2H,3aH)‐dione] | 12 ± 7% | 4.9 ± 0.8 µM | n.s. | n.s. | 
7 | COc1cc([C@H]2c3c([nH]c4ccccc34)[C@@H](C(=O)N3C(=O)OC[C@@H]3Cc3ccccc3)[C@H]3C(=O)OC(=O)[C@@H]23)cc(OC)c1OC [(+)‐3 a, (3aR,4S,10S,10aS)‐4‐{[(S)‐4‐Benzyl‐2‐oxo‐1,3‐oxazolidin‐3‐yl]carbonyl}‐10‐(3,4,5‐trimethoxyphenyl)‐4,5,10,10a‐tetrahydrofuro[3,4‐b]carbazole‐1,3(3aH)‐dione] |  |  |  |  | IC50 (monomeric CK2α): 20 µM; inhibition at 10 µM (holoenzyme CK2α2β2): 84 ± 5%; inhibition at 10 µM [1, 3]: 85 ± 13%; IC50 (CK2α/CK2β interaction): […]; inhibition at 10 µM (CK2α subunit): 76 ± 4%
8 | COc1cc([C@@H]2c3c([nH]c4ccccc34)[C@H](C(=O)N3C(=O)OC[C@@H]3Cc3ccccc3)[C@@H]3C(=O)NC(=O)[C@H]23)cc(OC)c1OC [(−)‐9 b] |  | 4.4 ± 0.3 µM | n.s. | n.s. | Inhibition (%) of CK2α2β2 (holoenzyme CK2α2β2; [3]): n.s.
9 | COc1cc([C@@H]2c3c([nH]c4ccccc34)[C@@H](C(=O)O)[C@@H]3C(=O)NC(=O)[C@H]23)cc(OC)c1OC (racemic) [(±)‐12] |  | 1.8 ± 0.8 µM | n.s. | n.s. | Inhibition (%) of CK2α2β2 (holoenzyme CK2α2β2; [3]): n.s.

Second part, led by results:

Row | inhibition at 10 µM (holoenzyme CK2α2β2; [3]) | Ki [2] | Inhibition (%) of CK2α (CK2α subunit; [3]) | Inhibition (%) of CK2α’ ^C336S [1, 3] | Compound | other results
10 | 29 ± 14% | 8.5 ± 2.9 µM | n.s. |  | COc1cc([C@@H]2c3c([nH]c4ccccc34)[C@H](C(=O)N3C(=O)OC[C@H]3Cc3ccccc3)[C@@H]3C(=O)N(C)C(=O)[C@H]23)cc(OC)c1OC [(−)‐10 a, (3aR,4R,10R,10aR)‐4‐{[(R)‐4‐Benzyl‐2‐oxo‐1,3‐oxazolidin‐3‐yl]carbonyl}‐2‐methyl‐10‐(3,4,5‐trimethoxyphenyl)‐4,5,10,10a‐tetrahydropyrrolo[3,4‐b]carbazole‐1,3(2H,3aH)‐dione] | inhibition at 10 µM [1, 3]: 30 ± 23%
11 | 15 ± 11% | 3.7 ± 0.7 µM | n.s. | n.s. | COc1cc([C@@H]2c3c([nH]c4ccccc34)[C@H](C(=O)N3C(=O)OC[C@@H]3Cc3ccccc3)[C@@H]3C(=O)N(C)C(=O)[C@H]23)cc(OC)c1OC [(−)‐10 b] | 
12 | 26 ± 7% | 2.8 ± 0.9 µM |  |  | COc1cc([C@H]2c3c([nH]c4ccccc34)[C@@H](C(=O)N3C(=O)OC[C@@H]3Cc3ccccc3)[C@H]3C(=O)N(C)C(=O)[C@@H]23)cc(OC)c1OC [(+)‐10 a] | inhibition at 10 µM [1, 3]: 53 ± 15%; inhibition at 10 µM (CK2α subunit; [3]): 41 ± 11%
13 |  | 3.6 ± 0.6 µM | n.s. | n.s. | COc1cc([C@@H]2c3c([nH]c4ccccc34)[C@H](C(=O)N3C(=O)OC[C@H]3Cc3ccccc3)[C@@H]3C(=O)NC(=O)[C@H]23)cc(OC)c1OC [(−)‐9 a] | Inhibition (%) of CK2α2β2 (holoenzyme CK2α2β2; [3]): n.s.
14 | 31 ± 9% | 7.2 ± 1.5 µM | n.s. | n.s. | COc1cc([C@H]2c3c([nH]c4ccccc34)[C@@H](C(=O)N3C(=O)OC[C@H]3Cc3ccccc3)[C@H]3C(=O)N(C)C(=O)[C@@H]23)cc(OC)c1OC [(+)‐10 b, (3aS,4S,10S,10aS)‐4‐{[(R)‐4‐Benzyl‐2‐oxo‐1,3‐oxazolidin‐3‐yl]carbonyl}‐2‐methyl‐10‐(3,4,5‐trimethoxyphenyl)‐4,5,10,10a‐tetrahydropyrrolo[3,4‐b]carbazole‐1,3(2H,3aH)‐dione] | 
15 | 20 ± 4% |  | n.s. | n.s. | COc1cc([C@H]2c3c([nH]c4ccccc34)[C@@H](C(=O)N3C(=O)OC[C@@H]3Cc3ccccc3)[C@H]3C(=O)NC(=O)[C@@H]23)cc(OC)c1OC [(+)‐9 a] | Inhibition of CK2α/CK2β2 interaction K i ([2]; MST, global fit with K D = […] nM, mean±SEM of 2–4 experiments, prec.=precipitation, n.s.=not significant): n.s.
